Source: US20210115104A1, “AMYLIN ANALOGUES” (Zealand Pharma A/S, priority 2015, published 2021)
*1 amine or outer side, *2 acyl side, *3 side chain or, on linkers, in order; H or OH if unused. Where a SMILES comes first, the peptide text is derived from it. Bridges are numbered along the chain shown (N, C = ends). [ ]: non-standard residue; d: D form. The star is where a group is joined. C20 diacid = O=C(O)CCCCCCCCCCCCCCCCCCC(=O)*; γGlu = O=C(O)[C@H](CCC(=O)[*:2])N[*:1]; Hyp = O=C(O)[C@@H]1C[C@@H](O)CN1; NMeI = CC[C@H](C)[C@H](NC)C(=O)O; Aad = N[C@@H](CCCC(=O)O)C(=O)O; Sar = CNCC(=O)O

How the values were obtained:
[1] = biological target: T1, human calcitonin receptor (hCTR2) (Homo sapiens, UniProt P30988); test: hCTR2 cAMP assay (AlphaScreen) in COS7 cells; format: cell-based; conditions: cAMP induction, COS7 cells expressing hCTR2; Table 1; read-out: hCTR2 EC50
T1 construct: expressed in transfected cells
T1 sequence (P30988 25-474): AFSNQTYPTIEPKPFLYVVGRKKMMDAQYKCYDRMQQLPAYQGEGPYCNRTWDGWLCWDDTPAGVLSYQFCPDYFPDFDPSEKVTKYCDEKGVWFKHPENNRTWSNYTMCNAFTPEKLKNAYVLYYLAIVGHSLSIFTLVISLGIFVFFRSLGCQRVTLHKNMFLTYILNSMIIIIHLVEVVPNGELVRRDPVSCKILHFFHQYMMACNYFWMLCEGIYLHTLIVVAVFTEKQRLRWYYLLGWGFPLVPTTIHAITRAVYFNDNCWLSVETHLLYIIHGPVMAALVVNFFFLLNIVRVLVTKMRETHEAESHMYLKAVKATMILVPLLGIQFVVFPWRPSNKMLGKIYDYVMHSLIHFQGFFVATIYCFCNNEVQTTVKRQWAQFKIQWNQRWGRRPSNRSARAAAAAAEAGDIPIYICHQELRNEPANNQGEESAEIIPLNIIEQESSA
Outline: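 Stable hCTR2 clone in RAMP-naïve COS7 cells stimulated 15 min at 37 °C with increasing peptide concentrations in Tyrode buffer pH 7.4 containing IBMX and 0.1% casein. cAMP in lysates measured by AlphaScreen; EC50 from 4-parameter logistic fit.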

[2] = Assessment of chemical stability (RP-HPLC normalized purity); format: physicochemical; conditions: for Normalized purity after 7 days, 40° C., pH 4: pH 4, 0.2 mg/ml; for Normalized purity after 7 days, 40° C., pH 4 / Normalized purity after 7 days, 40° C., pH 6 / Normalized purity after 7 days, 40° C., pH 7.5 / Normalized purity after 7 days, 40° C., pH 9: Table 1; for Normalized purity after 7 days, 40° C., pH 6: pH 6, 0.2 mg/ml; for Normalized purity after 7 days, 40° C., pH 7.5: pH 7.5, 0.2 mg/ml; for Normalized purity after 7 days, 40° C., pH 9: pH 9, 0.2 mg/ml
Outline: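 Peptides at 0.2 mg/ml in water adjusted to pH 4, 6, 7.5 or 9, incubated at 40° C for 7 days. Main-peak area-% by RP-HPLC (C8 ammonium formate or C18 TFA gradient, UV 220 nm), normalized to T=0 as 100.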

[3] = Pharmacokinetic (PK) profiling in rats; format: in vivo, rat; design: CI/F (apparent clearance values): unit not given here; conditions: Sprague Dawley male rats, single sc 30 nmol/kg; for half-life: rat, plasma, read-out: Plasma terminal elimination half-life t1/2 (converted)
Protocol: Sprague Dawley male rats were given a single subcutaneous (sc) bolus of each peptide to be tested, as specified below. 30 nmol/kg doses of compound were administered. Blood samples were drawn from the tail vein prior to dosing and at 24, 48, 72, 96 and 168 hours after dosing. Blood samples were taken from two rats at each time point, and only 2 blood samples were drawn from each rat, i.e. […] were used for each compound. The rats were euthanized immediately after the last blood sampling by concussion and cervical dislocation.
The dosing vehicle used for each test peptide was a mannitol-containing histidine buffer (pH 7.0). Plasma samples were analyzed after precipitation with ethanol by liquid chromatography mass spectrometry (LC-MS/MS). Mean plasma concentrations were used for calculation of the pharmacokinetic parameters using the non-compartmental approach in Phoenix WinNonlin 6.3.
Plasma terminal elimination half-life (t1/2) was determined as ln(2)/λz, where λz is the magnitude of the slope of the log linear regression of the log concentration versus time profile during the terminal phase. Apparent clearance (CL/F) was determined as dose/AUCinf (sc), where AUCinf is the area under the plasma concentration vs. time curve extrapolated to infinity (AUCinf=AUClast+Clast/λz, where Clast is the last observed plasma concentration).

Row | EC50 [1] [nM] | Normalized purity after 7 days, 40° C., pH 4 [2] | Normalized purity after 7 days, 40° C., pH 6 [2] | Normalized purity after 7 days, 40° C., pH 7.5 [2] | Normalized purity after 7 days, 40° C., pH 9 [2] | CI/F (apparent clearance values) [3] | half-life [3] [h] | Normalized purity pH 4 (Table 5) ([2]; pH 4, repeat of Example 6 for pairs with/without Asn-Asn at 21-22) | Normalized purity pH 6 (Table 5) ([2]; pH 6, repeat of Example 6 for pairs with/without Asn-Asn at 21-22) | Normalized purity pH 7.5 (Table 5) ([2]; pH 7.5, repeat of Example 6 for pairs with/without Asn-Asn at 21-22) | Normalized purity pH 9 (Table 5) ([2]; pH 9, repeat of Example 6 for pairs with/without Asn-Asn at 21-22) | Compound
1 | 0.09 | A (A = >90%) | B (B = 70-90%) | B (B = 70-90%) | B (B = 70-90%) | 0.0148 | – | – | – | – | – | CC[C@H](C)[C@@H](C(=O)N[C@@H](CC(C)C)C(=O)N[C@@H](CO)C(=O)N[C@@H](CO)C(=O)N[C@H](C(=O)N[C@@H](CCC(=O)O)C(=O)N[C@H](C(=O)NCC(=O)N[C@@H](CO)C(=O)N[C@@H](CO)C(=O)N[C@H](C(=O)N1CCC[C@H]1C(N)=O)[C@@H](C)O)C(C)C)[C@@H](C)O)N(C)C(=O)[C@H](C)NC(=O)CN(C)C(=O)[C@H](Cc1ccccc1)NC(=O)[C@H](CO)NC(=O)[C@H](CO)NC(=O)[C@H](CCCNC(=N)N)NC(=O)[C@H](CCC(N)=O)NC(=O)[C@H](CC(C)C)NC(=O)[C@H](Cc1ccccc1)NC(=O)[C@H](Cc1c[nH]cn1)NC(=O)[C@H](C)NC(=O)[C@H](CC(C)C)NC(=O)[C@H](CCCNC(=N)N)NC(=O)[C@H](CCC(=O)O)NC(=O)[C@@H](NC(=O)[C@H](C)NC(=O)[C@@H]1CSSC[C@H](NC(=O)[C@H](CCCNC(=N)N)NC(=O)CC[C@H](NC(=O)CCCCCCCCCCCCCCCCCCC(=O)O)C(=O)O)C(=O)NCC(=O)N[C@@H]([C@@H](C)O)C(=O)N[C@@H](C)C(=O)N[C@@H]([C@@H](C)O)C(=O)N1)[C@@H](C)O [Compound 34, [19CD]-isoGlu-R-C( )-GTAT-C( )-ATERLAHFLQRSSF-Gly(Me)-A-Ile(Me)-LSSTEVGSSTP-NH2] ({C20 diacid-γGlu}-RCGTATCATERLAHFLQRSSF[Sar]A[NMeI]LSSTEVGSSTP-NH2; disulfide 2-7)
2 | 0.21 | A (A = >90%) | A (A = >90%) | B (B = 70-90%) | B (B = 70-90%) | 0.0117 | 25.7 | – | – | – | – | CC[C@H](C)[C@@H](C(=O)N[C@@H](CC(C)C)C(=O)N[C@@H](CO)C(=O)N[C@@H](CO)C(=O)N[C@H](C(=O)N[C@@H](CCC(=O)O)C(=O)N[C@H](C(=O)NCC(=O)N[C@@H](CO)C(=O)N[C@@H](CO)C(=O)N[C@H](C(=O)N1CCC[C@H]1C(N)=O)[C@@H](C)O)C(C)C)[C@@H](C)O)N(C)C(=O)[C@H](C)NC(=O)CN(C)C(=O)[C@H](Cc1ccccc1)NC(=O)[C@H](CO)NC(=O)[C@H](CO)NC(=O)[C@H](CCCNC(=N)N)NC(=O)[C@H](CCC(=O)O)NC(=O)[C@H](CC(C)C)NC(=O)[C@H](Cc1ccccc1)NC(=O)[C@H](Cc1c[nH]cn1)NC(=O)[C@H](C)NC(=O)[C@H](CC(C)C)NC(=O)[C@H](CCCNC(=N)N)NC(=O)[C@H](CCC(=O)O)NC(=O)[C@@H](NC(=O)[C@H](C)NC(=O)[C@@H]1CSSC[C@H](NC(=O)[C@H](CCCNC(=N)N)NC(=O)CC[C@H](NC(=O)CCCCCCCCCCCCCCCCCCC(=O)O)C(=O)O)C(=O)NCC(=O)N[C@@H]([C@@H](C)O)C(=O)N[C@@H](C)C(=O)N[C@@H]([C@@H](C)O)C(=O)N1)[C@@H](C)O [Compound 36, [19CD]-isoGlu-R-C( )-GTAT-C( )-ATERLAHFLERSSF-Gly(Me)-A-Ile(Me)-LSSTEVGSSTP-NH2] ({C20 diacid-γGlu}-RCGTATCATERLAHFLERSSF[Sar]A[NMeI]LSSTEVGSSTP-NH2; disulfide 2-7)
3 | 0.06 | A (A = >90%) | A (A = >90%) | A (A = >90%) | B (B = 70-90%) | 0.00406 | 36.7 | – | – | – | – | CC[C@H](C)[C@@H](C(=O)N[C@@H](CC(C)C)C(=O)N[C@@H](CO)C(=O)N[C@@H](CO)C(=O)N[C@H](C(=O)N[C@@H](CCC(=O)O)C(=O)N[C@H](C(=O)NCC(=O)N[C@@H](CO)C(=O)N[C@@H](CC(N)=O)C(=O)N[C@H](C(=O)N1C[C@H](O)C[C@H]1C(N)=O)[C@@H](C)O)C(C)C)[C@@H](C)O)N(C)C(=O)[C@H](C)NC(=O)CN(C)C(=O)[C@H](Cc1ccccc1)NC(=O)[C@H](CO)NC(=O)[C@H](CO)NC(=O)[C@H](CCCNC(=N)N)NC(=O)[C@H](CCC(N)=O)NC(=O)[C@H](CC(C)C)NC(=O)[C@H](Cc1ccccc1)NC(=O)[C@H](CC(=O)O)NC(=O)[C@H](C)NC(=O)[C@H](CC(C)C)NC(=O)[C@H](CCCNC(=N)N)NC(=O)[C@H](CCC(N)=O)NC(=O)[C@@H](NC(=O)[C@H](C)NC(=O)[C@@H]1CSSC[C@H](NC(=O)[C@H](CCCNC(=N)N)NC(=O)CC[C@H](NC(=O)CCCCCCCCCCCCCCCCCCC(=O)O)C(=O)O)C(=O)N[C@@H](CC(N)=O)C(=O)N[C@@H]([C@@H](C)O)C(=O)N[C@@H](C)C(=O)N[C@@H]([C@@H](C)O)C(=O)N1)[C@@H](C)O [Compound 49, [19CD]-isoGlu-R-C( )-NTAT-C( )-ATQRLADFLQRSSF-Gly(Me)-A-Ile(Me)-LSSTEVGSNT-Hyp-NH2] ({C20 diacid-γGlu}-RCNTATCATQRLADFLQRSSF[Sar]A[NMeI]LSSTEVGSNT[Hyp]-NH2; disulfide 2-7)
4 | 0.11 | A (A = >90%) | A (A = >90%) | A (A = >90%) | B (B = 70-90%) | 0.0045 | 26.2 | A (A = >90%) | A (A = >90%) | A (A = >90%) | B (B = 70-90%) | CC[C@H](C)[C@@H](C(=O)N[C@@H](CC(C)C)C(=O)N[C@@H](CO)C(=O)N[C@@H](CO)C(=O)N[C@H](C(=O)N[C@@H](CCC(=O)O)C(=O)N[C@H](C(=O)NCC(=O)N[C@@H](CO)C(=O)N[C@@H](CC(N)=O)C(=O)N[C@H](C(=O)N1C[C@H](O)C[C@H]1C(N)=O)[C@@H](C)O)C(C)C)[C@@H](C)O)N(C)C(=O)[C@H](C)NC(=O)CN(C)C(=O)[C@H](Cc1ccccc1)NC(=O)[C@H](CO)NC(=O)[C@H](CO)NC(=O)[C@H](CCCNC(=N)N)NC(=O)[C@H](CCC(N)=O)NC(=O)[C@H](CC(C)C)NC(=O)[C@H](Cc1ccccc1)NC(=O)[C@H](CCCC(=O)O)NC(=O)[C@H](C)NC(=O)[C@H](CC(C)C)NC(=O)[C@H](CCCNC(=N)N)NC(=O)[C@H](CCC(=O)O)NC(=O)[C@@H](NC(=O)[C@H](C)NC(=O)[C@@H]1CSSC[C@H](NC(=O)[C@H](CCCNC(=N)N)NC(=O)CC[C@H](NC(=O)CCCCCCCCCCCCCCCCCCC(=O)O)C(=O)O)C(=O)NCC(=O)N[C@@H]([C@@H](C)O)C(=O)N[C@@H](C)C(=O)N[C@@H]([C@@H](C)O)C(=O)N1)[C@@H](C)O [Compound 55, [19CD]-isoGlu-R-C( )-GTAT-C( )-ATERLA-Aad-FLQRSSF-Gly(Me)-A-Ile(Me)-LSSTEVGSNT-Hyp-NH2] ({C20 diacid-γGlu}-RCGTATCATERLA[Aad]FLQRSSF[Sar]A[NMeI]LSSTEVGSNT[Hyp]-NH2; disulfide 2-7)
